Conditions: 101.33 kPa, Liquid; for viscosity: Concentric cylinders viscometry; for mass density: Vibrating tube method; for electrical conductivity: syringe-type cell with a pair of platinum electrodes

CC[N+](C)(C)CCOCCOC.O=S(=O)([N-]S(=O)(=O)C(F)(F)F)C(F)(F)F
Conditions | electrical conductivity [S/m] | mass density [kg/m3] | viscosity [mPa·s]
273.15 K | 0.0681 | 1414.1 | 243.5
278.15 K | 0.0936 | 1409.65 | 173.6
283.15 K | 0.125 | 1404.97 | 127.5
288.15 K | 0.162 | 1400.31 | 96.35
293.15 K | 0.206 | 1395.68 | 74.27
298.15 K | 0.257 | 1391.07 | 58.57
303.15 K | 0.315 | 1386.49 | 47.19
313.15 K | 0.451 | 1377.4 | 32.03
323.15 K | 0.616 | 1368.39 | 22.89
333.15 K | 0.81 | 1359.45 | 17.02
343.15 K | 1.02 | 1350.57 | 13.14
353.15 K | 1.27 | 1341.75 | 10.39
363.15 K | – | 1332.98 | 8.433

CCCCCCC[N+](C)(C)CC.O=S(=O)([N-]S(=O)(=O)C(F)(F)F)C(F)(F)F
Conditions | electrical conductivity [S/m] | mass density [kg/m3] | viscosity [mPa·s]
273.15 K | 0.0157 | 1311.95 | 944.3
278.15 K | 0.023 | 1307.78 | 634.1
283.15 K | 0.0328 | 1303.56 | 437.8
288.15 K | 0.0454 | 1299.38 | 310.5
293.15 K | 0.0614 | 1295.2 | 225.7
298.15 K | 0.081 | 1291 | 167.7
303.15 K | 0.105 | 1286.82 | 127.6
313.15 K | 0.167 | 1278.51 | 77.77
323.15 K | 0.249 | 1270.28 | 50.63
333.15 K | 0.353 | 1262.09 | 34.68
343.15 K | 0.48 | 1253.97 | 24.84
353.15 K | 0.631 | 1245.9 | 18.49
363.15 K | – | 1237.87 | 14.18
